# Test results as given in patent US6436630B1, “Method for testing the toxicity of chemical substances using gastropods” (priority 1998, dated 2002).
# Like-named read-outs stand apart in the source and are kept apart here.
# Columns and labels:
# [1] = system: foot mucosa of slugs (species Arion); assay: Slug mucosal toxicity test, Example 1 (15 min daily treatment, five days); format: in vivo; conditions: for % WL, reduction in weight (weight loss) caused by the 15 minute treatment as % of initial body weight of the day / % MP, mucus production as % of the body weight at the start of the day before the treatment: 1% w/v in PBS; for % MP, mucus production as % of the body weight at the start of the day before the treatment / ALP released into PBS / LDH released into PBS / Protein released into PBS: 15 min; for ALP released into PBS / LDH released into PBS / Protein released into PBS: total mean of 7 samples/day per slug
# Description: Initially, the slugs are kept on a culture under controlled conditions of temperature and humidity until they have reached a stable body weight. The purpose of achieving a stable body weight is to improve the reproducibility of the results, particularly as the release of substances from the slugs may conveniently be measured in terms of the body weight thereof. The slugs are then isolated from the culture and placed in a vented plastic box lined with moist paper towel and placed at 95% relative humidity at 20° C. seven days before the start of an experiment. The slugs were not bred in any particular way, i.e. they were wild slugs. It is anticipated that even more accurate and reproducible results can be obtained by selective breeding of the slugs, although as shown by the test results this is not a necessary requirement of the present invention to obtain accurate and useful data.
# The test procedure is simple and rapid. The chemical substance to be tested is applied directly to the mucosal membrane of a slug, e.g. to the foot, by placing the slug individually in a petri dish containing the test substance. Slugs treated with phosphate buffered saline are used as a negative control. As a positive control slugs treated with a known toxic substance, benzalkonium chloride, were used.
# Because the mucosal epithelium of interest is located at the outside of the slug the effect of substances can be easily observed. […] This can also be simply measured by weighing the petri dish before and after the treatment of the slugs with the chemical substance (with the slugs removed in each case). Additionally an indirect response to epithelial damage caused by a chemical substance may be determined by the reduction of the body weight of the slugs due to the leakage of haemolymphatic fluids through the damaged foot surface.
# After the treatment the slugs are transferred individually to a fresh petri dish containing phosphate buffered saline. After a suitable exposure time, e.g. 1 hour the phosphate buffered saline is collected and analysed for the presence of proteins and/or enzymes, e.g. lactate dehydrogenase and/or alkaline phosphatase, or other marker substances released from the foot or epithelium of the slug, for example membrane associated components such as phospholipids or cholesterol. This procedure can be repeated after periods of several hours in order to determine the reversibility of the cell damage caused by the test chemical substance. The concentration or amount of the chemical substance to be tested can be changed and the influence of the concentration can be easily examined. The exposure time can also be changed if required. The slugs can be treated during several successive days in order to investigate the subchronical effect of substances on the foot mucosa.
# Seven days before the start of the experiment the slugs were isolated in a plastic box lined with moist paper towel and placed at 95% relative humidity at 20° C. As test substances didecanyol-L-α-phosphatidylcholine (DDPC) and sodium deoxycholate (SDC) were selected. Benzalkonium chloride (1% w/v), SDC (1% w/v) and DDPC (1%, w/v) were prepared in phosphate buffered saline (PBS, pH 7.4). […] During the test the slugs are preferably kept in a generally calm and normal state and are not subjected to mechanical vibrations or mechanical or electrical disturbances which may affect mucus production.
# The enzymes (lactate dehydrogenase (LDH) and alkaline phosphatase (ALP)) and total protein released into the PBS were determined. The slugs were weighed before and after the incubation period to determine the body weight changes. The mucus production was measured by weighing the petri dishes before and after the treatment with a test substance. The results are shown in Table 1 and shown graphically in FIGS. 1 to 5.
# [2] = system: foot mucosa of slugs of species Arion; assay: Slug mucosal toxicity test, Example 2 (15 min daily treatment, four days); conditions: for % WL, weight loss as reduction in body weight caused by the 15 minutes of treatment / % MP, mucus production as % of the body weight at the start of the day before the treatment: 1% w/v in PBS; for % MP, mucus production as % of the body weight at the start of the day before the treatment / ALP released into PBS / LDH released into PBS / Protein released into PBS: 15 min; for ALP released into PBS / LDH released into PBS / Protein released into PBS: 1% w/v, total mean of 3 samples/day per slug
# Description: As test substance a β-blocking agent propranolo HCl (1% w/v) was used. Benzalkonium chloride (1% w/v) and Propranolol (1% w/v) were prepared in PBS (pH 7.4). The slugs were daily incubated during 15 min with the test solution during four days. After the incubation period the slugs were placed on 500 μL PBS in a petri dish. The PBS was sampled every hour and refreshed with 500 μL PBS for 3 hours after the treatment.
# The enzymes (LDH, ALP) and the total protein released into the PBS were determined. The change in body weight and the mucus production caused by the treatment were examined.
# [3] = system: foot mucosa of slugs of species Arion; format: in vivo
# [4] = system: foot mucosa of slugs of species Limax; format: in vivo; conditions: for % MP, mucus production as % of the body weight at the start of the day before the treatment: 1% w/v (HPβCD 5% w/v) in PBS, 15 min; for ALP released into PBS / LDH released into PBS / Protein released into PBS: 1% w/v (HPβCD 5% w/v), total mean of 7 samples/day per slug
# Description: Slugs of the species Limax are terrestial slugs have lungs and also a small internal shell. As test substances hydroxypropyl-β-cyclodextrin (HPβCD), sodium tauro-24,25-dihdrofiisidate (STDHF) and sodium deoxycholate were selected. Benzalkonium chloride (1% w/v), HPβCD (5% w/v), STDHF (1% w/v) and SDC (1% w/v) were prepared in phosphate buffered saline (PBS, pH 7.4).
# The enzymes lactate dehydrogenase (LDH) and alkaline phosphatase (ALP) and total protein released into the PBS were determined. The change in body weight and mucus production caused by the treatment were examined.
substance,measurement,setting,value
Benzalkonium chloride,membrane damage (in words),[1]; in vivo,severe membrane damage
same,"% WL, weight loss as reduction in body weight caused by the 15 minutes of treatment",[2]; day 1,7.17%
same,"% MP, mucus production as % of the body weight at the start of the day before the treatment",[2]; day 1,3.28%
same,ALP released into PBS,[2]; day 1,0.56 U/L
same,LDH released into PBS,[2]; day 1,1.92 U/L
same,Protein released into PBS,[2]; day 1,8.36 μg/30 μL
same,"% WL, weight loss as reduction in body weight caused by the 15 minutes of treatment",[2]; day 2,4.32%
same,"% MP, mucus production as % of the body weight at the start of the day before the treatment",[2]; day 2,2.75%
same,ALP released into PBS,[2]; day 2,3.42 U/L
same,LDH released into PBS,[2]; day 2,6.27 U/L
same,Protein released into PBS,[2]; day 2,4.08 μg/30 μL
same,"% WL, weight loss as reduction in body weight caused by the 15 minutes of treatment",[2]; day 3,2.87%
same,"% MP, mucus production as % of the body weight at the start of the day before the treatment",[2]; day 3,2.35%
same,ALP released into PBS,[2]; day 3,5.64 U/L
same,LDH released into PBS,[2]; day 3,8.11 U/L
same,Protein released into PBS,[2]; day 3,11.69 μg/30 μL
same,"% WL, weight loss as reduction in body weight caused by the 15 minutes of treatment",[2]; day 4,3.61%
same,"% MP, mucus production as % of the body weight at the start of the day before the treatment",[2]; day 4,3.09%
same,ALP released into PBS,[2]; day 4,15.59 U/L
same,LDH released into PBS,[2]; day 4,48.65 U/L
same,Protein released into PBS,[2]; day 4,11.79 μg/30 μL
same,membrane damage (in words),[3]; in vivo,severe membrane damage
same,ranking order of increasing toxicity,[3]; in vivo,"PBS, 5% HPβCD<1% STDHF<1% SDC and 1% BAC"
same,reduction in body weight to % of the initial weight,[3]; in vivo,about 50%
same,membrane damage (in words),[4]; in vivo,severe membrane damage
same,ranking order of increasing toxicity,[4]; in vivo,"PBS, 5% HPβCD<1% STDHF<1% SDC and 1% BAC"
same,reduction in body weight to % of the initial weight,[4]; in vivo,about 50%
sodium deoxycholate [SDC],membrane damage (in words),"[1]; 1% w/v, 15 min daily, five days",severe membrane damage
same,"% WL, reduction in weight (weight loss) caused by the 15 minute treatment as % of initial body weight of the day",[1]; day 1,12.73%
same,"% MP, mucus production as % of the body weight at the start of the day before the treatment",[1]; day 1,7.6%
same,ALP released into PBS,"[1]; day 1, 1% w/v",13.49 U/L
same,LDH released into PBS,"[1]; day 1, 1% w/v",14.07 U/L
same,Protein released into PBS,"[1]; day 1, 1% w/v",19.92 μg/30 μL
same,"% WL, reduction in weight (weight loss) caused by the 15 minute treatment as % of initial body weight of the day",[1]; day 2,12.60%
same,"% MP, mucus production as % of the body weight at the start of the day before the treatment",[1]; day 2,10.7%
same,ALP released into PBS,"[1]; day 2, 1% w/v",43.02 U/L
same,LDH released into PBS,"[1]; day 2, 1% w/v",93.01 U/L
same,Protein released into PBS,"[1]; day 2, 1% w/v",22.84 μg/30 μL
same,"% WL, reduction in weight (weight loss) caused by the 15 minute treatment as % of initial body weight of the day",[1]; day 3,8.06%
same,"% MP, mucus production as % of the body weight at the start of the day before the treatment",[1]; day 3,5.5%
same,ALP released into PBS,"[1]; day 3, 1% w/v",103.56 U/L
same,LDH released into PBS,"[1]; day 3, 1% w/v",135.93 U/L
same,Protein released into PBS,"[1]; day 3, 1% w/v",38.95 μg/30 μL
same,"% WL, reduction in weight (weight loss) caused by the 15 minute treatment as % of initial body weight of the day",[1]; day 4,11.28%
same,"% MP, mucus production as % of the body weight at the start of the day before the treatment",[1]; day 4,7.6%
same,ALP released into PBS,"[1]; day 4, 1% w/v",42.22 U/L
same,LDH released into PBS,"[1]; day 4, 1% w/v",146.89 U/L
same,Protein released into PBS,"[1]; day 4, 1% w/v",54.76 μg/30 μL
same,"% WL, reduction in weight (weight loss) caused by the 15 minute treatment as % of initial body weight of the day",[1]; day 5,8.03%
same,"% MP, mucus production as % of the body weight at the start of the day before the treatment",[1]; day 5,2.6%
same,ALP released into PBS,"[1]; day 5, 1% w/v",22.98 U/L
same,LDH released into PBS,"[1]; day 5, 1% w/v",136.19 U/L
same,Protein released into PBS,"[1]; day 5, 1% w/v",55.59 μg/30 μL
same,ranking order of increasing toxicity,[3]; Arion,"PBS, 5% HPβCD<1% STDHF<1% SDC and 1% BAC"
same,membrane damage (in words),"[3]; Arion, 1% w/v (SDC data in Table 1, Example 1)",severe membrane damage
same,reduction in body weight to % of the initial weight,"[3]; Arion, 1% w/v, five days (SDC data from Example 1)",about 50%
same,ranking order of increasing toxicity,[4]; Limax,"PBS, 5% HPβCD<1% STDHF<1% SDC and 1% BAC"
same,membrane damage (in words),"[4]; Limax, 1% w/v",severe membrane damage
same,reduction in body weight to % of the initial weight,"[4]; Limax, 1% w/v, five days",about 50%
same,"% MP, mucus production as % of the body weight at the start of the day before the treatment","[4]; day 1, Limax",11.16%
same,ALP released into PBS,"[4]; day 1, Limax",11.62 U/L
same,LDH released into PBS,"[4]; day 1, Limax",9.01 U/L
same,Protein released into PBS,"[4]; day 1, Limax",10.1 μg/30μL
same,"% MP, mucus production as % of the body weight at the start of the day before the treatment","[4]; day 2, Limax",10.27%
same,ALP released into PBS,"[4]; day 2, Limax",3.34 U/L
same,LDH released into PBS,"[4]; day 2, Limax",13.6 U/L
same,Protein released into PBS,"[4]; day 2, Limax",15.78 μg/30μL
same,"% MP, mucus production as % of the body weight at the start of the day before the treatment","[4]; day 3, Limax",13.01%
same,ALP released into PBS,"[4]; day 3, Limax",2.62 U/L
same,LDH released into PBS,"[4]; day 3, Limax",26.15 U/L
same,Protein released into PBS,"[4]; day 3, Limax",18.04 μg/30μL
same,"% MP, mucus production as % of the body weight at the start of the day before the treatment","[4]; day 4, Limax",19.38%
same,ALP released into PBS,"[4]; day 4, Limax",6.24 U/L
same,LDH released into PBS,"[4]; day 4, Limax",85.8 U/L
same,Protein released into PBS,"[4]; day 4, Limax",35.04 μg/30μL
same,"% MP, mucus production as % of the body weight at the start of the day before the treatment","[4]; day 5, Limax",8.11%
same,ALP released into PBS,"[4]; day 5, Limax",28.79 U/L
same,LDH released into PBS,"[4]; day 5, Limax",145.71 U/L
same,Protein released into PBS,"[4]; day 5, Limax",88.14 μg/30μL
